Literature values as cited in patent US10544066B2, “Microencapsulated nitrification inhibitor compositions” (DOW AGROSCIENCES LLC, priority 2014, dated 2020).

Conditions: at 23° Celsius

Clc1cccc(C(Cl)(Cl)Cl)n1 [nitrapyrin, 2-chloro-6-(trichloromethyl)pyridine]
vapor pressure: 2.8×10^−3 mm Hg
